What follows are molecules tested on Mus musculus (assay: Antimalarial activity was evaluated against Plasmodium vinckei V52 after intraperitoneal administration at dose 10 mg/kg). Conditions: not given.
Assay type: functional

With `Cn1c(=O)nc2n(-c3ccc(C#N)cc3)c3ccccc3nc-2c1=O` the Cured was 0%.

These molecules were tested on Mus musculus (assay: Antimalarial activity was evaluated against Plasmodium vinckei V52 after intraperitoneal administration at dose 15 mg/kg). Conditions: not given.
Assay type: functional

Going from `Cn1c(=O)nc2n(-c3cc(Cl)cc(Cl)c3)c3ccccc3nc-2c1=O` to `Cn1c(=O)nc2n(-c3ccc(Cl)cc3Cl)c3ccccc3nc-2c1=O`, the Cured falls from 100% to 0%.

`Cn1c(=O)nc2n(-c3cccc(F)c3)c3ccccc3nc-2c1=O` and `Cc1cccc(-n2c3nc(=O)n(C)c(=O)c-3nc3ccccc32)c1` are the same in Cured: 0% for the first, 0% for the second.

With `CCCCc1ccc(-n2c3nc(=O)n(C)c(=O)c-3nc3ccccc32)cc1` the Cured was 0%.

What follows are molecules tested on Mus musculus (assay: Antimalarial activity was evaluated against Plasmodium vinckei vinckei V52 after intraperitoneal administration at dose 40 mg/kg). Conditions: not given.
Assay type: functional

Compared with `Cn1c(=O)nc2n(-c3cc(Cl)cc(Cl)c3)c3ccccc3nc-2c1=O`, `Cn1c(=O)nc2n(-c3cccc(F)c3)c3ccccc3nc-2c1=O` is lower in Cured: 100% for the first, 0% for the second.

Each molecule was assayed on Mus musculus (assay: Increase in mean survival days was determined in mice after ip administration of 20 mg/kg). Conditions: route intraperitoneal.
Assay type: functional

Compared with `Cn1c(=O)nc2n(-c3cccc(F)c3)c3ccccc3nc-2c1=O`, `Cc1cccc(-n2c3nc(=O)n(C)c(=O)c-3nc3ccccc32)c1` is higher in Mean survival days: 0 days for the first, 0.5 days for the second.

`CCCCc1ccc(-n2c3nc(=O)n(C)c(=O)c-3nc3ccccc32)cc1` showed a Mean survival days of 0 days.

What follows are molecules tested on Mus musculus (assay: Antimalarial activity was evaluated against Plasmodium vinckei V52 after intraperitoneal administration at dose 30 mg/kg). Conditions: not given.
Assay type: functional

For `Cn1c(=O)nc2n(-c3ccc(C#N)cc3)c3ccccc3nc-2c1=O`, the Cured was 0%.

These molecules were tested on Mus musculus (assay: Increase in mean survival days was determined in mice after ip administration of 30 mg/kg). Conditions: route intraperitoneal.
Assay type: functional

First: Cn1c(=O)nc2n(-c3cccc(F)c3)c3ccccc3nc-2c1=O
Second: Cc1cccc(-n2c3nc(=O)n(C)c(=O)c-3nc3ccccc32)c1
The Mean survival days of the first is higher: 0.2 days for the first, 0 days for the second.

`CCCCc1ccc(-n2c3nc(=O)n(C)c(=O)c-3nc3ccccc32)cc1` and `Cn1c(=O)nc2n(-c3ccc(C#N)cc3)c3ccccc3nc-2c1=O` are the same in Mean survival days: 0 days for the first, 0 days for the second.

The molecules below were run on Mus musculus (assay: Antimalarial activity was evaluated against Plasmodium vinckei V52 after intraperitoneal administration at dose 70 mg/kg). Conditions: not given.
Assay type: functional

Going from `Cn1c(=O)nc2n(-c3cc(Cl)cc(Cl)c3)c3ccccc3nc-2c1=O` to `Cn1c(=O)nc2n(-c3ccc(C#N)cc3)c3ccccc3nc-2c1=O`, the Cured falls from 60% to 0%.

With `CCCCc1ccc(-n2c3nc(=O)n(C)c(=O)c-3nc3ccccc32)cc1` the Cured was 0%.

What follows are molecules tested on Mus musculus (assay: Antimalarial activity was evaluated against Plasmodium vinckei V52 after intraperitoneal administration at dose 50 mg/kg). Conditions: not given.
Assay type: functional

First: Cn1c(=O)nc2n(-c3cccc(F)c3)c3ccccc3nc-2c1=O
Second: Cc1cccc(-n2c3nc(=O)n(C)c(=O)c-3nc3ccccc32)c1
The Cured of the first is higher: 20% for the first, 0% for the second.

What follows are molecules tested on Mus musculus (assay: Antimalarial activity was evaluated against Plasmodium vinckei V52 after intraperitoneal administration at dose 25 mg/kg). Conditions: not given.
Assay type: functional

`Cn1c(=O)nc2n(-c3cccc(F)c3)c3ccccc3nc-2c1=O` and `Cc1cccc(-n2c3nc(=O)n(C)c(=O)c-3nc3ccccc32)c1` are the same in Cured: 0% for the first, 0% for the second.

Each molecule was assayed on Mus musculus (assay: Increase in mean survival days was determined in mice after ip administration of 70 mg/kg; toxic). Conditions: route intraperitoneal.
Assay type: functional

`Cn1c(=O)nc2n(-c3cccc(F)c3)c3ccccc3nc-2c1=O` was tested, and the Mean survival days was -1 days.

Each molecule was assayed on Mus musculus (assay: Increase in mean survival days was determined in mice after ip administration of 10 mg/kg). Conditions: route intraperitoneal.
Assay type: functional

Going from `Cn1c(=O)nc2n(-c3cccc(F)c3)c3ccccc3nc-2c1=O` to `Cc1cccc(-n2c3nc(=O)n(C)c(=O)c-3nc3ccccc32)c1`, the Mean survival days rises from 0.2 days to 0.8 days.

Going from `Cn1c(=O)nc2n(-c3ccc(Cl)cc3Cl)c3ccccc3nc-2c1=O` to `Cn1c(=O)nc2n(-c3ccc(C#N)cc3)c3ccccc3nc-2c1=O`, the Mean survival days falls from 1.7 days to 0 days.

In the case of `CCCCc1ccc(-n2c3nc(=O)n(C)c(=O)c-3nc3ccccc32)cc1`, the Mean survival days is reported as 0 days.

These molecules were tested on Plasmodium vinckei vinckei (assay: Antimalarial activity against Plasmodium vinckei V52 on 10 mg/kg intraperitoneal dose). Conditions: not given.
Assay type: functional

First: Cn1c(=O)nc2n(-c3cc(Cl)cc(Cl)c3)c3ccccc3nc-2c1=O
Second: Cn1c(=O)nc2n(-c3ccc(Cl)cc3Cl)c3ccccc3nc-2c1=O
The Cured of the first is higher: 100% for the first, 0% for the second.

`Cn1c(=O)nc2n(-c3cccc(F)c3)c3ccccc3nc-2c1=O` and `Cc1cccc(-n2c3nc(=O)n(C)c(=O)c-3nc3ccccc32)c1` are the same in Cured: 0% for the first, 0% for the second.

For `CCCCc1ccc(-n2c3nc(=O)n(C)c(=O)c-3nc3ccccc32)cc1`, the Cured was 0%.

These molecules were tested on Plasmodium vinckei vinckei (assay: Antimalarial activity against Plasmodium vinckei V52 on 30 mg/kg intraperitoneal dose). Conditions: not given.
Assay type: functional

Going from `Cn1c(=O)nc2n(-c3cc(Cl)cc(Cl)c3)c3ccccc3nc-2c1=O` to `Cn1c(=O)nc2n(-c3ccc(Cl)cc3Cl)c3ccccc3nc-2c1=O`, the Cured falls from 100% to 0%.

`Cn1c(=O)nc2n(-c3cccc(F)c3)c3ccccc3nc-2c1=O` and `Cc1cccc(-n2c3nc(=O)n(C)c(=O)c-3nc3ccccc32)c1` are the same in Cured: 0% for the first, 0% for the second.

In the case of `CCCCc1ccc(-n2c3nc(=O)n(C)c(=O)c-3nc3ccccc32)cc1`, the Cured is reported as 0%.

What follows are molecules tested on Mus musculus (assay: Increase in mean survival days was determined in mice after ip administration of 15 mg/kg). Conditions: route intraperitoneal.
Assay type: functional

Compared with `Cn1c(=O)nc2n(-c3cccc(F)c3)c3ccccc3nc-2c1=O`, `Cc1cccc(-n2c3nc(=O)n(C)c(=O)c-3nc3ccccc32)c1` is lower in Mean survival days: 0.2 days for the first, 0 days for the second.

First: Cn1c(=O)nc2n(-c3ccc(Cl)cc3Cl)c3ccccc3nc-2c1=O
Second: CCCCc1ccc(-n2c3nc(=O)n(C)c(=O)c-3nc3ccccc32)cc1
The Mean survival days of the first is higher: 0.5 days for the first, 0 days for the second.

These molecules were tested on Plasmodium vinckei vinckei (assay: Antimalarial activity against Plasmodium vinckei V52 after 20 mg/kg intraperitoneal dose). Conditions: not given.
Assay type: functional

First: Cn1c(=O)nc2n(-c3cc(Cl)cc(Cl)c3)c3ccccc3nc-2c1=O
Second: Cn1c(=O)nc2n(-c3cccc(F)c3)c3ccccc3nc-2c1=O
The Cured of the first is higher: 100% for the first, 0% for the second.

`CCCCc1ccc(-n2c3nc(=O)n(C)c(=O)c-3nc3ccccc32)cc1` and `Cc1cccc(-n2c3nc(=O)n(C)c(=O)c-3nc3ccccc32)c1` are the same in Cured: 0% for the first, 0% for the second.

These molecules were tested on Mus musculus (assay: Antimalarial activity was evaluated against Plasmodium vinckei vinckei V52 after intraperitoneal administration at dose 50 mg/kg). Conditions: not given.
Assay type: functional

For `CCCCc1ccc(-n2c3nc(=O)n(C)c(=O)c-3nc3ccccc32)cc1`, the Cured was 0%.

Each molecule was assayed on Plasmodium vinckei vinckei (assay: Increase in mean survival days of Plasmodium inoculated mice (Mus musculus) after 70 mg/Kg intraperitoneal dose). Conditions: not given.
Assay type: functional

Going from `Cn1c(=O)nc2n(-c3cc(Cl)cc(Cl)c3)c3ccccc3nc-2c1=O` to `Cc1cccc(-n2c3nc(=O)n(C)c(=O)c-3nc3ccccc32)c1`, the Mean survival days falls from 16.5 days to 0.3 days.

Compared with `CCCCc1ccc(-n2c3nc(=O)n(C)c(=O)c-3nc3ccccc32)cc1`, `Cn1c(=O)nc2n(-c3ccc(C#N)cc3)c3ccccc3nc-2c1=O` is lower in Mean survival days: 0.5 days for the first, 0 days for the second.

The molecules below were run on Mus musculus (assay: Increase in mean survival days was determined in mice after ip administration of 40 mg/kg). Conditions: route intraperitoneal.
Assay type: functional

`Cn1c(=O)nc2n(-c3cccc(F)c3)c3ccccc3nc-2c1=O` gave a Mean survival days of 0.8 days.

These molecules were tested on Mus musculus (assay: Increase in mean survival days was determined in mice after ip administration of 25 mg/kg). Conditions: route intraperitoneal.
Assay type: functional

`Cn1c(=O)nc2n(-c3cccc(F)c3)c3ccccc3nc-2c1=O` and `Cc1cccc(-n2c3nc(=O)n(C)c(=O)c-3nc3ccccc32)c1` are the same in Mean survival days: 0 days for the first, 0 days for the second.

`CCCCc1ccc(-n2c3nc(=O)n(C)c(=O)c-3nc3ccccc32)cc1` gave a Mean survival days of 0.1 days.

These molecules were tested on Plasmodium vinckei vinckei (assay: Antimalarial activity against Plasmodium vinckei V52 on 70 mg/kg intraperitoneal dose). Conditions: not given.
Assay type: functional

`Cn1c(=O)nc2n(-c3cccc(F)c3)c3ccccc3nc-2c1=O` and `Cc1cccc(-n2c3nc(=O)n(C)c(=O)c-3nc3ccccc32)c1` are the same in Cured: 0% for the first, 0% for the second.

The molecules below were run on Mus musculus (assay: Increase in mean survival days was determined in mice after ip administration of 30 mg/kg; toxic). Conditions: route intraperitoneal.
Assay type: functional

For `Cn1c(=O)nc2n(-c3ccc(Cl)cc3Cl)c3ccccc3nc-2c1=O`, the Mean survival days was -1 days.

What follows are molecules tested on Mus musculus (assay: Antimalarial activity was evaluated against Plasmodium vinckei vinckei V52 after intraperitoneal administration at dose 25 mg/kg). Conditions: not given.
Assay type: functional

Going from `Cn1c(=O)nc2n(-c3cc(Cl)cc(Cl)c3)c3ccccc3nc-2c1=O` to `Cn1c(=O)nc2n(-c3ccc(Cl)cc3Cl)c3ccccc3nc-2c1=O`, the Cured falls from 100% to 0%.

`CCCCc1ccc(-n2c3nc(=O)n(C)c(=O)c-3nc3ccccc32)cc1` was tested, and the Cured was 0%.

What follows are molecules tested on Mus musculus (assay: Increase in mean survival days was determined in mice after ip administration of 50 mg/kg). Conditions: route intraperitoneal.
Assay type: functional

First: Cn1c(=O)nc2n(-c3cccc(F)c3)c3ccccc3nc-2c1=O
Second: Cc1cccc(-n2c3nc(=O)n(C)c(=O)c-3nc3ccccc32)c1
The Mean survival days of the first is lower: 0 days for the first, 0.5 days for the second.

`CCCCc1ccc(-n2c3nc(=O)n(C)c(=O)c-3nc3ccccc32)cc1` showed a Mean survival days of 0 days.

These molecules were tested on Mus musculus (assay: Increase in mean survival days was determined in mice after ip administration of 25 mg/kg; toxic). Conditions: route intraperitoneal.
Assay type: functional

Work on `Cn1c(=O)nc2n(-c3ccc(Cl)cc3Cl)c3ccccc3nc-2c1=O` yielded a Mean survival days of -1.2 days.

Organism: Mus musculus
Experiment: Effective dose required to obtain a parasitaemia of 40% 48 hours after treatment in mice
Assay type: functional
Conditions: not given

For `Cn1c(=O)nc2n(-c3cc(Cl)cc(Cl)c3)c3ccccc3nc-2c1=O`, the ED40 was 40.2 µmol/kg.

— ChEMBL document CHEMBL1125711, “Flavins as potential antimalarials. 2. 3-Methyl-10-(substituted-phenyl) flavins” (J Med Chem, 1991)
